{
  "source": "patent US9796714B2",
  "about": "“Calcium channel agonists” (University of Pittsburgh—Of the Commonwealth System of …, priority 2013, dated 2017)",
  "key": {"[1]": {"molecular_target": "T1, mitogen-activated protein kinase (MAPK1(h)) (Homo sapiens, UniProt P27361)", "T1 construct": "purchased EMD Millipore KinaseProfiler service (Millipore UK Ltd.)", "assay": "Kinase inhibitory activity (EMD Millipore KinaseProfiler), MAPK1", "type": "biochemical", "conditions": "20 μM highest concentration used; read-out: MAPK EC50/IC50 affinities", "protocol": "(§1) Kinase inhibitory activity. Kinase inhibitory activities were determined using the EMD Millipore KinaseProfiler™ service (Millipore UK Ltd.). Each compound's kinase inhibitory activity was tested at three different concentrations (0.2 μM, 2 μM, and 20 μM) against five different kinases: Cdk1 cyclinB(h), cdk2 cyclinA(h), cdk5 p35(h), mitogen-activated protein kinase (MAPK1(h)) and myosin light-chain kinase (MLCK(h)).\n(§2) Statistical Analysis. […] For the dose-response analyses on Ca^2+ current, each concentration of the four different compounds was tested in 3-6 cells. […] All EC50 and IC50 values and their respective errors were determined by performing 100 iterations of a logistic function curve fit."}, "Cdk1 cyclinB(h)": {"molecular_target": "T2, Cdk1 cyclinB(h) (Homo sapiens, UniProt P06493)", "T2 construct": "purchased EMD Millipore KinaseProfiler service (Millipore UK Ltd.)", "assay": "Kinase inhibitory activity (EMD Millipore KinaseProfiler), cdk1", "type": "biochemical", "conditions": "20 μM highest concentration used; read-out: Cdk1 EC50/IC50 affinities", "protocol": "as §1\n(§3) Statistical Analysis. Statistical analysis was performed using either GraphPad Prism 5 (GraphPad Software, Inc.) or Origin 7 (OriginLab) software. For the dose-response analyses on Ca^2+ current, each concentration of the four different compounds was tested in 3-6 cells. […] All EC50 and IC50 values and their respective errors were determined by performing 100 iterations of a logistic function curve fit. Data are presented as mean±s.e.m. unless otherwise noted."}, "[2]": {"tested_on": "LEMS passive transfer mouse NMJs", "assay": "Intracellular recordings at LEMS passive transfer mouse NMJs, ex vivo ETA nerve-muscle preparation (Example 3)", "protocol": "LEMS passive transfer. To test GV-58 in a LEMS model NMJ, an established LEMS passive transfer mouse model was utilized. To perform the passive transfer of LEMS, mice were injected with the serum of patients diagnosed with LEMS. […] Each serum sample was tested for the presence of voltage-gated Ca^2+ channel antibodies using a Ca^2+ channel antibody radioimmune assay (Kronus RIA kit, Star, Id.). Control serum was obtained from the University of Pittsburgh Medical Center blood bank. […]; 25-32 g; Charles River Laboratories) were divided into two groups: one group that received LEMS serum, and a control group that received control serum.\nIntracellular recordings at mouse NMJs. […] A thin upper arm muscle, the epitrochleoanconeus (ETA), was chosen for these recordings. […] […]. A train of 10 EPPs was also collected in each muscle fiber using an inter-stimulus interval of 20 msec. To analyze the data, both the amplitudes and the areas under the waveforms (integral) were determined after correcting each digitized point in each trace for non-linear summation. Data were collected and analyzed using an Axoclamp 900A and the pClamp 10 suite of programs (Molecular Devices, Sunnyvale, Calif.).\nStatistical Analysis. […] For the dose-response analyses on Ca^2+ current, each concentration of the four different compounds was tested in 3-6 cells. […]. All EC50 and IC50 values and their respective errors were determined by performing 100 iterations of a logistic function curve fit."}, "[3]": {"molecular_target": "T3, N-type Ca^2+ channel (Cav2.2) (Rattus norvegicus, UniProt Q02294)", "T3 construct": "expressed in transfected cells; later also transient transfection", "T3 sequence (Q02294 whole entry)": "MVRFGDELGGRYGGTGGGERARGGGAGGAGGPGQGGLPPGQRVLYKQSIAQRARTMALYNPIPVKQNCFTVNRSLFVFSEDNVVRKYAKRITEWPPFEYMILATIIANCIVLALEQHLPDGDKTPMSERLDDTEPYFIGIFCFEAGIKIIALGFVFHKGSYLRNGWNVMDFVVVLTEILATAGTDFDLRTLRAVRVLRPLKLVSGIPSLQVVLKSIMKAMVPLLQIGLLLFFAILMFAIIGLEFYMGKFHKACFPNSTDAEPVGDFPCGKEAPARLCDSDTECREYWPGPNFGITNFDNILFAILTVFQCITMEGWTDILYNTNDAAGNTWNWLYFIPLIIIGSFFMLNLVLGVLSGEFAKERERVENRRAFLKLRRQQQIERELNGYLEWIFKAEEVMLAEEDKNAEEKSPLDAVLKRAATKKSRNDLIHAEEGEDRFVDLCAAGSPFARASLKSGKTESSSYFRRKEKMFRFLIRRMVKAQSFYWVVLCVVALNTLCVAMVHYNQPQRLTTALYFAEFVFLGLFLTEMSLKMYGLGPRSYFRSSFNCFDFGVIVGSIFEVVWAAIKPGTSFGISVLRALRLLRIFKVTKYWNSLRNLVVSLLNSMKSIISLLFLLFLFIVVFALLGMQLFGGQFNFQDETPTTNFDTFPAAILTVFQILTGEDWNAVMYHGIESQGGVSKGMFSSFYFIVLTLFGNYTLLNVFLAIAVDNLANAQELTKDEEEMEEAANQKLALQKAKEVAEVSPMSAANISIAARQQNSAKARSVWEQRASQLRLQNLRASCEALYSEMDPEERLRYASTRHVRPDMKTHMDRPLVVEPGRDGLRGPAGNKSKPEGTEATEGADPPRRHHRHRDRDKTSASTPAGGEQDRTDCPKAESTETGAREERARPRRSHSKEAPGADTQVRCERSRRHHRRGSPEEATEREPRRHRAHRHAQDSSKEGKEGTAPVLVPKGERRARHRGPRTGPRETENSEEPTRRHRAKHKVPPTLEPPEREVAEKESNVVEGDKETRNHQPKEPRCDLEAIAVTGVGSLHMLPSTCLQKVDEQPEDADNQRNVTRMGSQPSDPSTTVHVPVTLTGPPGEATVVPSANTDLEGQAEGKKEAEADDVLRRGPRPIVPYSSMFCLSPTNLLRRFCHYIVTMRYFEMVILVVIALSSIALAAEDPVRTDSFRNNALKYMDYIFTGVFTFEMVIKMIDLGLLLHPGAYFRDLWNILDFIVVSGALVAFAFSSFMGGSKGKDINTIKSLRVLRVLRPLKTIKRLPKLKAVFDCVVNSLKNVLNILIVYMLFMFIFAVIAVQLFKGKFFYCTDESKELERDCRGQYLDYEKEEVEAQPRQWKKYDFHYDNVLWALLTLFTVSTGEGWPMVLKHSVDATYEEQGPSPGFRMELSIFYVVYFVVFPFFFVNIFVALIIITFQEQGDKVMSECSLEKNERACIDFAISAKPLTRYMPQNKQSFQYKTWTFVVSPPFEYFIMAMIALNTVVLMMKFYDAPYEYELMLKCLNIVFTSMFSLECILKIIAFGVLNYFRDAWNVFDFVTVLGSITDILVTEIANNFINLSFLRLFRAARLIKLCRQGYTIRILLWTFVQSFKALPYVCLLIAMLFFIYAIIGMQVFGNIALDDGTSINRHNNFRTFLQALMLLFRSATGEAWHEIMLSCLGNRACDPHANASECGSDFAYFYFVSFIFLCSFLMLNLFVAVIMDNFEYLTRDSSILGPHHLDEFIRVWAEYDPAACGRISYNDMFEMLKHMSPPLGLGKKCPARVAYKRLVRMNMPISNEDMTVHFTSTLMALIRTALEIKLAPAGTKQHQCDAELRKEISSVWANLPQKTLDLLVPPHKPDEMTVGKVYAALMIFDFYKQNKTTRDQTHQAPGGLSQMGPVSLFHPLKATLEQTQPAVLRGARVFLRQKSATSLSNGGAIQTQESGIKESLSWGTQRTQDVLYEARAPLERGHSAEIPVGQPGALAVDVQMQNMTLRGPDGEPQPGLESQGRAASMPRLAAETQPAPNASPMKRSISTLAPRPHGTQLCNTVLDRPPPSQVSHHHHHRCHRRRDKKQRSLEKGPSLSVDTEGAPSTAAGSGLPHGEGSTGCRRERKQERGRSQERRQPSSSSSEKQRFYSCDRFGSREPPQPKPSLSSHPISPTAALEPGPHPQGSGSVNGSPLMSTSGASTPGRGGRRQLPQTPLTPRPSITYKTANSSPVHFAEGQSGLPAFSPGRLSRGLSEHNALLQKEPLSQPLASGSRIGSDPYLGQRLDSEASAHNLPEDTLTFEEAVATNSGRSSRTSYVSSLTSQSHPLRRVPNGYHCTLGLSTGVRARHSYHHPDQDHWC", "assay": "N-type Ca2+ channel agonist activity, whole-cell perforated patch clamp of tail currents in tsA201 cells", "type": "cell-based", "protocol": "(§4) tsA201 cells expressing calcium channels. […] For subsequent evaluation of effects on N-, P/Q-, or L-type channels, tsA-201 cells were transiently transfected with Cav2.2, Cav2.1, or Cav1.3, in combination with Cavβ3 and […] (Addgene, Cambridge Mass.) using FuGENE 6 (Life Technologies, Grand Island, N.Y.). All cells were maintained in DMEM supplemented with 10% fetal bovine serum. For the stable cell line expressing N-type channels, 25 μg/mL zeocin, 5 μg/mL blasticidin, and 25 μg/mL hygromycin were added as selection agents.\n(§5) Whole-cell patch clamp recordings of calcium current. […] Briefly, the pipette solution consisted of […] Cs2SO4, 60 mM CsCl, 1 mM MgCl2, 10 mM 4-(2-hydroxyethyl)-1-piperazineethanesulfonic acid (HEPES) at pH 7.4. […] Patch pipettes were fabricated from borosilicate glass and pulled to a resistance of about 1 MΩ. Before each experiment, a stock solution consisting of 3 mg amphotericin-B dissolved into 50 μL anhydrous DMSO was made. […] Capacitive currents and passive membrane responses to voltage commands were subtracted from the data. Currents were amplified by an Axopatch 200B amplifier, filtered at 5 KHz, and digitized at 10 KHz for subsequent analysis using pClamp software (Axon Instruments/Molecular Devices; Sunnyvale, Calif.). […] To measure effects on calcium channel tail currents, the tail current integral was measured before and after application of a derivative, with the integral of each trace being normalized to its peak. All experiments were carried out at room temperature (22° C.). […] All other salts and chemicals were obtained from Sigma-Aldrich chemical company (St. Louis, Mo.).\nas §3"}, "cdk2 cyclinA(h)": {"molecular_target": "T4, cdk2 cyclinA(h) (Homo sapiens, UniProt P24941)", "T4 construct": "purchased EMD Millipore KinaseProfiler service (Millipore UK Ltd.)", "assay": "Kinase inhibitory activity (EMD Millipore KinaseProfiler), cdk2", "type": "biochemical", "protocol": "as §1, §2"}, "cdk5 p35(h)": {"molecular_target": "T5, cdk5 p35(h) (Homo sapiens, UniProt Q00535)", "T5 construct": "purchased EMD Millipore KinaseProfiler service (Millipore UK Ltd.)", "T5 sequence (Q00535 whole entry)": "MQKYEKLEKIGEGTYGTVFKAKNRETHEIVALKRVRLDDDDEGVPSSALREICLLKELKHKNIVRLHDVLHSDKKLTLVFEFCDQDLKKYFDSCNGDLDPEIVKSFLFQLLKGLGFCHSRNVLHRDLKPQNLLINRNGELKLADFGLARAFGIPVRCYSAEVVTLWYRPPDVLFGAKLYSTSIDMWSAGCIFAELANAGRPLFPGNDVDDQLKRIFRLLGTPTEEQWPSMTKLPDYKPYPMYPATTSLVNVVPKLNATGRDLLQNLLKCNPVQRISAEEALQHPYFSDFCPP", "T5 sequence (Q15078 whole entry partner)": "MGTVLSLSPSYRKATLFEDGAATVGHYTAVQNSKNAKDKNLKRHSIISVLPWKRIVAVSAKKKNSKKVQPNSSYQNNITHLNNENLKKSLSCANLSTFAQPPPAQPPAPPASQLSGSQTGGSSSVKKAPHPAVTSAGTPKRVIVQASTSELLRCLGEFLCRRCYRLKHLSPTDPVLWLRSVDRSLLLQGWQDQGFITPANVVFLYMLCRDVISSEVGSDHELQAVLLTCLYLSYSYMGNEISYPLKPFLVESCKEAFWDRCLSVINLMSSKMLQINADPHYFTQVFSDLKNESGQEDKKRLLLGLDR", "assay": "Kinase inhibitory activity (EMD Millipore KinaseProfiler), cdk5", "type": "biochemical", "conditions": "20 μM highest concentration used; read-out: Cdk5 EC50/IC50 affinities", "protocol": "as §1, §3"}, "[4]": {"molecular_target": "T6, P/Q-type channels (Cav 2.1) (Rattus norvegicus, UniProt P54282)", "T6 construct": "host or cells: tsA-201", "T6 sequence (P54282 whole entry)": "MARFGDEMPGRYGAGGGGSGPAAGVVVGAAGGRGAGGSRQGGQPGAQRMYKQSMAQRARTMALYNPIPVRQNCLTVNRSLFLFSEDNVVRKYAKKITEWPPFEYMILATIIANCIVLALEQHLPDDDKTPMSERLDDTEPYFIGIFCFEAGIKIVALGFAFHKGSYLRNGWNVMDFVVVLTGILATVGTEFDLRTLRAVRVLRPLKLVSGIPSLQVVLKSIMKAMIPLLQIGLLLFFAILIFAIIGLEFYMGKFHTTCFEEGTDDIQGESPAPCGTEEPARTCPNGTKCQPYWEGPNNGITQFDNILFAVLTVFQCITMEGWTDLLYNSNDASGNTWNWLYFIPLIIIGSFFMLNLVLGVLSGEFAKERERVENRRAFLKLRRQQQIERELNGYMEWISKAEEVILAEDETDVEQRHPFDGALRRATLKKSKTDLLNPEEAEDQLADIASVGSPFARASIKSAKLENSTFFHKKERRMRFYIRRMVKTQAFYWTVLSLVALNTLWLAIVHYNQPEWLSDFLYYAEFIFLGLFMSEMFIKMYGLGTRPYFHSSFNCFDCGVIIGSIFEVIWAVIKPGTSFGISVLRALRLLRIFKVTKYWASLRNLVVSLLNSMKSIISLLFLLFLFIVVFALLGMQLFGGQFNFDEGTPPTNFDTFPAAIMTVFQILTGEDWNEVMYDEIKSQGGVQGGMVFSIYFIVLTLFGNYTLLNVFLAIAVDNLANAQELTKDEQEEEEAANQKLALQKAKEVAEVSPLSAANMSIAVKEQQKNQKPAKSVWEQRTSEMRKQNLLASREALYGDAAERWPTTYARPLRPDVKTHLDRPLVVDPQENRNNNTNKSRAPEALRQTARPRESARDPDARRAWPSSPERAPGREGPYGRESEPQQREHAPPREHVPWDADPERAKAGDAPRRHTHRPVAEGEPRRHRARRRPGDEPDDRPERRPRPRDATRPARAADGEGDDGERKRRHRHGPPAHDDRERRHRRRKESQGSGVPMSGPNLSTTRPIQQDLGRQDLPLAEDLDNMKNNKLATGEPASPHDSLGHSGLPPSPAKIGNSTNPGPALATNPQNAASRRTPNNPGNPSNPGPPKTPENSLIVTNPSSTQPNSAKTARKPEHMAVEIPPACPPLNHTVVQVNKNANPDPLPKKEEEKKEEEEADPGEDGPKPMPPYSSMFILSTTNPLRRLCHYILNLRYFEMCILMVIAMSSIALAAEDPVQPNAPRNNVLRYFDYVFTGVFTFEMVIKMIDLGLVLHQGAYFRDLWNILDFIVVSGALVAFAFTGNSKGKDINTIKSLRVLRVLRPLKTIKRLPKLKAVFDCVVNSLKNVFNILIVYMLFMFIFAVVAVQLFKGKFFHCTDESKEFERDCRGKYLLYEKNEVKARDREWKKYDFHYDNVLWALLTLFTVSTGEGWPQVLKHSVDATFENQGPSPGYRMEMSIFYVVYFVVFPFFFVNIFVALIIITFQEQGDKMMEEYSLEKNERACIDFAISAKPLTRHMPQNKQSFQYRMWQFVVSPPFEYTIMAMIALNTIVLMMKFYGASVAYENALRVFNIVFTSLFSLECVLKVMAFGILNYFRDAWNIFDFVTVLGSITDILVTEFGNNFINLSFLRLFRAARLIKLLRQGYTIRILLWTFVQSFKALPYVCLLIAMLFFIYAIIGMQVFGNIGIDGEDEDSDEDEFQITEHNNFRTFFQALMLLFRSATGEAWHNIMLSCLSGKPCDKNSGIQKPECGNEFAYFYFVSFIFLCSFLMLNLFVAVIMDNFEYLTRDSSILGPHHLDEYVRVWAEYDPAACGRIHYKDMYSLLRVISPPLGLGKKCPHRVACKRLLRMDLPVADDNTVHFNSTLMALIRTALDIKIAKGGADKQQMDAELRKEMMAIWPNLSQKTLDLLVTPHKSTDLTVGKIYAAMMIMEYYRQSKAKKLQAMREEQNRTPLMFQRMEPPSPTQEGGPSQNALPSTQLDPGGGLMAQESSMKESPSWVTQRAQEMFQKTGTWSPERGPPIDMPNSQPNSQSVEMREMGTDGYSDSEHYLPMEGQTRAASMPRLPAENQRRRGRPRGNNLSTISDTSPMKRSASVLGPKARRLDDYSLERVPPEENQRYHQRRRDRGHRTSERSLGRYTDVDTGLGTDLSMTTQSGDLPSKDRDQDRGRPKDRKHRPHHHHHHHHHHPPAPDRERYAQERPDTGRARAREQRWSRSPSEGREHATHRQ", "assay": "P/Q-type Ca2+ channel agonist activity, whole-cell perforated patch clamp in tsA-201 cells", "type": "cell-based", "protocol": "as §4, §5\nCapacitive currents and passive membrane responses to voltage commands were subtracted from the data. […] All experiments were carried out at room temperature (22° C.)."}, "[5]": {"molecular_target": "T7, L-type (Cav 1.3) channels (Rattus norvegicus, UniProt P27732)", "T7 construct": "host or cells: tsA-201", "assay": "L-type Ca2+ channel agonist activity, whole-cell perforated patch clamp in tsA-201 cells", "type": "cell-based", "experimental": "For subsequent evaluation of effects on N-, P/Q-, or L-type channels, tsA-201 cells were transiently transfected with Cav2.2, Cav2.1, or Cav1.3, in combination with Cavβ3 and Cavα2β1 (Addgene, Cambridge Mass.) using FuGENE 6 (Life Technologies, Grand Island, N.Y.). All cells were maintained in DMEM supplemented with 10% fetal bovine serum.\nWhole-cell patch clamp recordings of calcium current. […] Briefly, the pipette solution consisted of 70 nM Cs2SO4, 60 mM CsCl, 1 mM MgCl2, 10 mM 4-(2-hydroxyethyl)-1-piperazineethanesulfonic acid (HEPES) at pH 7.4. […] Patch pipettes were fabricated from borosilicate glass and pulled to a resistance of about 1 MΩ. Before each experiment, a stock solution consisting of 3 mg amphotericin-B dissolved into 50 μL anhydrous DMSO was made. […] Capacitive currents and passive membrane responses to voltage commands were subtracted from the data. Currents were amplified by an Axopatch 200B amplifier, filtered at 5 KHz, and digitized at 10 KHz for subsequent analysis using pClamp software (Axon Instruments/Molecular Devices; Sunnyvale, Calif.). […] To measure effects on calcium channel tail currents, the tail current integral was measured before and after application of a derivative, with the integral of each trace being normalized to its peak. All experiments were carried out at room temperature (22° C.). […]"}},
  "note": "Several values for one entry are separate records, joined by “and”; a condition that tells them apart may be missing. Equal values may be shown once. Read-outs that look alike come from different tables or passages of the source.",
  "data": [
    {"smiles": "CCCn1cnc2c(NCc3ccc(C)s3)nc(N[C@H](CC)CO)nc21", "note": "[Compound 13x, (2R)-2-[(6-{[(5-Methylthiophen-2-yl)methyl]amino}-9-propyl-9H-purin-2-yl)amino]butan-1-ol]", "values": [
      {"measurement": "IC50", "setting": "[1]", "result": "> 20", "unit": "µM"},
      {"measurement": "IC50", "setting": "Cdk1 cyclinB(h)", "result": "20.6 ± 0.96", "unit": "µM"},
      {"measurement": "increase of the strength of neuromuscular transmission", "setting": "[2]", "result": "about 50%"},
      {"measurement": "EPP 90% to 10% decay time", "setting": "[2]; 50 μM", "result": "6.79 ± 0.11", "unit": "ms"},
      {"measurement": "EPP full width at half maximum (FWHM)", "setting": "[2]; 50 μM", "result": "3.90 ± 0.07", "unit": "ms"},
      {"measurement": "final EPP in 50 Hz train of 10 stimuli, normalized to the first EPP", "setting": "[2]; 50 μM", "result": "about 94%"},
      {"measurement": "mEPP frequency", "setting": "[2]; 50 μM", "result": "10.45 ± 0.64", "unit": "s⁻¹"},
      {"measurement": "increase of quantal content when measuring area", "setting": "[2]; 50 μM vs vehicle", "result": "~92", "unit": "%"},
      {"measurement": "increase of quantal content when measuring peak", "setting": "[2]; 50 μM vs vehicle", "result": "~62", "unit": "%"},
      {"measurement": "mean change in mEPP amplitude", "setting": "[2]; 50 μM, relative to vehicle", "result": "1.00±0.02"},
      {"measurement": "EPP amplitude", "setting": "[2]; aBC2 serum NMJs, 30-minute incubation in 50 μM", "result": "19.44±0.98", "unit": "mV"},
      {"measurement": "higher affinity for the calcium channel than (R)-roscovitine", "setting": "[3]; FIG. 4C dose response curve", "result": 6, "unit": "fold"},
      {"measurement": "increase in efficacy as an agonist for N- and P/Q-type Ca^2+ channels vs (R)-roscovitine", "setting": "[3]; N- and P/Q-type", "result": "~4", "unit": "fold"},
      {"measurement": "increase in potency as an agonist for N- and P/Q-type Ca^2+ channels vs (R)-roscovitine", "setting": "[3]; N- and P/Q-type", "result": "3-4 fold"},
      {"measurement": "agonist effect on the Ca^2+ channel tail currents (in words)", "setting": "[3]; N-type", "result": "strong agonist effect"},
      {"measurement": "maximal fold increase in the tail current integral relative to control", "setting": "[3]; N-type channels", "result": "~32", "unit": "fold"},
      {"measurement": "EC50", "setting": "[3]; Table 3, calcium channel agonist, read-out: N-type EC50/IC50 affinities", "result": "7.21 ± 0.86", "unit": "µM"},
      {"measurement": "EC50", "setting": "[3]; read-out: 95% confidence interval for the fit (EC50) to N-type channels", "result": "4.6 to 9.8", "unit": "µM"},
      {"measurement": "EC50", "setting": "[3]; whole cell perforated patch clamp, deactivation (tail) currents from N-type channels, read-out: N-Type Ca^2+ Channel Activity EC50 +/− SEM", "result": "7.2 µM and 7.21 µM"},
      {"measurement": "IC50", "setting": "cdk2 cyclinA(h); 20 μM highest concentration used, read-out: Cdk2 EC50/IC50 affinities", "result": "3.29 ± 0.43", "unit": "µM"},
      {"measurement": "EC50", "setting": "cdk2 cyclinA(h); determined in duplicate at 0.2, 2, and 20 μM, read-out: Cdk2 Activity EC50 +/− SEM", "result": 3, "unit": "µM"},
      {"measurement": "IC50", "setting": "cdk5 p35(h)", "result": "3.03 ± 0.32", "unit": "µM"},
      {"measurement": "increase of the tail current integral compared to control", "setting": "[4]; P/Q-type channels", "result": "~33", "unit": "fold"},
      {"measurement": "EC50", "setting": "[4]; b265, read-out: agonist effects on P/Q-type calcium channels EC50", "result": 9.9, "unit": "µM"},
      {"measurement": "EC50", "setting": "[4]; calcium channel agonist, Cav 2.1, read-out: P/Q-type EC50/IC50 affinities", "result": "8.8 µM and 8.81 µM"},
      {"measurement": "EC50", "setting": "[4]; read-out: 95% confidence interval for a fit (EC50) to P/Q channels data", "result": "6.7 to 14.5", "unit": "µM"},
      {"measurement": "EC50", "setting": "[5]; Cav 1.3, no measureable agonist effect up to 100 μM, read-out: L-type EC50/IC50 affinities", "result": "> 100", "unit": "µM"},
      {"measurement": "EC50", "setting": "[5]; b265, read-out: agonist effects on L-type calcium channels EC50", "result": "> 100", "unit": "µM"}
    ]}
  ]
}
